# Legend:
# [1] = test system: Human umbilical vein endothelial cells (HUVECs); assay: Measurement of 50% lethal concentration for HUVEC (alamarBlue); type: cell-based
# Description: Human umbilical vein endothelial cells (HUVECs) (ATCC CRL-1730) were obtained from American Type Culture Collection and precultivated in an Endothelial Cell Growth Medium (CELL APPLICATIONS, USA) containing 10% bovine fetal serum supplemented with 1% Antibiotic-Antimycotic (GIBCO BRL, USA) under a 5% CO2 atmosphere at 37° C.
# A Matrigel matrix (BD Biosciences, USA) was melted and kept at 4° C. on ice, and then, 50 μL of the matrix were transferred to each well of a 96-well tissue culture plate. The plate was incubated at 37° C. for at least one hour to solidify the matrix solution.
# On the other hand, the astaxanthin monoester obtained in Preparation Example 1 was dissolved in dimethylsulfoxide (DMSO), and then diluted with distilled water to prepare stock test solutions in which the astaxanthin monoester was contained in 40 (v/v) % DMSO at 25000, 2500, 250, 25, and 2.5 μM, respectively. […]
# After the incubation, 20 μL of a 90% alamarBlue reagent were added to individual wells, and incubated for an additional 6 hours. Then, the fluorescence intensity of each well was measured at an excitation wavelength of 530 nm and an emission wavelength of 590 nm using a Spectrafluor Plus plate reader to count the number of living cells. […] The 50% lethal concentration was calculated as the concentration at which the number of living cells was 50% of the number of cells at the start of the experiment.
# [2] = test system: obese model mice fed with a high-fat diet; assay: Effect of astaxanthin monoester on obese model mice fed with a high-fat diet; type: in vivo, male C57BL/6J strain mice
# Description: Astaxanthin was administered to obese model mice fed with a high-fat diet, and the change in body weight, the amount of subcutaneous fat (in the inguinal region and the back), the amount of visceral fat (around the reproductive organs and around the kidney), and the liver weight were examined in the following manner.
# Four week old male C57BL/6J strain mice (SPF) purchased from CHARLES RIVER LABORATORIES JAPAN, INC. were used. The mice were preliminarily fed for 8 days and used for the test after they reached the age of 5 weeks. The mice were divided into three groups of 8 each, that is, a normal diet group, a high-fat diet group, and a high-fat diet+astaxanthin (AX) group, so that the average body weight was equal among the groups.
# During the preliminary feeding period, the mice were given an ordinary powder diet (MF, Oriental Yeast Co., Ltd.), and during the test period of 16 weeks, the mice were given the ordinary powder diet or a high-fat diet having the composition shown in Table 1 below. As to drinking water, the mice were allowed to drink freely sterile distilled water from a water supply bottle.
# The astaxanthin monoester prepared in Preparation Example 1 was dissolved in an olive oil (Wako Pure Chemical Industries, Ltd.) to prepare a solution containing astaxanthin monoester at a concentration of 60 mg/mL. This solution was administered to the high-fat diet+AX group and the olive oil to the other two groups in a volume of 0.05 mL/10 g body weight every day for 16 weeks from the start of the test (at the age of 5 weeks) to the age of 21 weeks, using a probe for oral administration in the mice.
# During the test period, the body weight was measured once a week using a scale. At the end of the test, the body weight was measured, and thereafter, the mice were fasted overnight and sacrificed by collecting blood from the heart. Then, the liver, the adipose tissue in the inguinal region, the adipose tissue around the reproductive organs, the adipose tissue around the kidney, and the adipose tissue in the back were collected and the weights thereof were measured.
# The different types of data obtained were expressed as average values±standard errors for each group. In order to test for statistically significant differences between the high-fat diet group and the high-fat diet+AX group or the normal diet group, a multiple comparison test (ANOVA) was performed using an analysis software (Stat View, Abacus Inc., USA), and a comparison between the groups was performed using Fisher's PLSD multiple comparison test. Differences were considered statistically significant when p<0.05.
# [3] = high-fat diet+AX vs high-fat diet group, oral daily for 16 weeks, end of test, FIG. 2
# [4] = high-fat diet+AX vs high-fat diet group, oral daily for 16 weeks, end of test, FIG. 3
substance,measurement,setting,value
astaxanthin monoester,LC50,"[1]; 72 hours incubation, 250 μM = maximum concentration dissolved in DMSO",≥ 250 µM
same,toxicity,[1]; conclusion from the LC50 for HUVECs,low
same,increase in body weight,"[2]; high-fat diet+AX group vs high-fat diet group, oral, 60 mg/mL in olive oil, 0.05 mL/10 g body weight every day for 16 weeks, FIG. 1",tended to be distinctly suppressed
same,amount of fat accumulation in subcutaneous fat (weight),[2]; [3],significantly suppressed
same,amount of fat accumulation in visceral fat (weight),[2]; [3],significantly suppressed
same,proportion of the liver weight to body weight,[2]; [4],approached that in the case of the normal diet
same,proportions of all of the adipose tissues to body weight (increase),[2]; [4],significantly suppressed

# Reference: US20070129436A1, “Agent for Suppressing Body Fat Accumulation” (YAMAHA HATSUDOKI KABUSHIKI KAISHA, priority 2005, published 2007)
